Results published in patent US6593342B1, “Pharmaceutical compositions comprising 2-quinolones” (Laboratoire L. Lafon, priority 1998, dated 2003).

SMILES | melting point [°C]
COc1ccc(-c2cc3c(OC)cc(OC)cc3nc2OC)cc1 [Compound 7a, 2,5,7-Trimethoxy-3-(4-methoxyphenyl)quinoline] | 106 to 107
CCOC(=O)COc1nc2cc(OC)cc(OC)c2cc1-c1ccc(OC)cc1 [Compound 11a, Ethyl 2-([5,7-Dimethoxy-3-(4-methoxyphenyl)-2-quinolinyl]oxy)acetate] | 95 to 96
COc1ccc(-c2cc3c(OC)cc(OC)cc3nc2OCC(=O)OCc2ccccc2)cc1 [Compound 13a, Benzyl 2-([5,7-Dimethoxy-3-(4-methoxyphenyl)-2-quinolinyl]oxy)acetate] | 114 to 115
CCN(CC)C(=O)COc1nc2cc(OC)cc(OC)c2cc1-c1ccc(OC)cc1 [Compound 18a, N,N-Diethyl-2-([5,7-dimethoxy-3-(4-methoxyphenyl)-2-quinolinyl]oxy)acetamide] | 146 to 147
COc1ccc(-c2cc3c(OC)cc(OC)cc3nc2OCC#N)cc1 [Compound 19a, 2-([5,7-Dimethoxy-3-(4-methoxyphenyl)-2-quinolinyl]oxy)acetonitrile] | 149 to 150
COc1ccc(-c2cc3c(OC)cc(OC)cc3nc2OCCCN(C)C)cc1 [Compound 22a] | 54 to 55
COc1ccc(-c2cc3c(OC)cc(OC)cc3nc2OCCN(C)C)cc1 [Compound 23a, N,N-Dimethyl-2-[5,7-dimethoxy-3-(4-methoxyphenyl)-2-quinolyl]oxy-1-ethanamine] | 49 to 50
COc1ccc2[nH]c(=O)c(-c3ccccc3)cc2c1 [Compound 44, 6-Methoxy-3-phenyl-1,2-dihydro-2-quinolinone] | 243 to 244
